Assay results taken from patent US11020399B2, “Intermediates useful in the synthesis of compounds as modulators of protein kinases” (Rhizen Pharmaceuticals SA, priority 2011, dated 2021).

Key:
Assay type in all cases: biochemical
PI3kγ = PI3kγ (Homo sapiens, UniProt P48736); test: Fluorescent (HTRF) determination of PI3 kinase enzyme activity, PI3Kγ; settings: for inhibition at 0.1 µM / % inhibition (PI3kγ) 100 nM: 100 nM (Examples 60-137); for inhibition at 0.3 µM: 300 nM (Examples 1-59)
From the text: (§1) Assay 1: Fluorescent Determination of PI3Kinase Kinase Enzyme Activity
(§2) Phosphoinositide 3 kinases (PI3K) belong to a class of lipid kinases that play a critical role in the regulation of several key cellular processes. The PI3K are capable of phosphorylating the 3-hydroxy position of phosphoinositols thereby generating second messengers involved in downstream signalling events. The homogenous time resolved fluorescence (HTRF) assay allows detection of 3,4,5-triphosphate (PIP3) formed as a result of phosphorylation of phosphotidylinositol 4,5-biphosphate (PIP2) by PI3K isoforms such as α, β, γ or δ. PI3K isoform activity for a, p, y or 8 was determined using a PI3K human HTRF™ Assay Kit (Millipore, Billerica, Mass.) with modifications. All incubations were carried out at room temperature. Briefly, 0.5 μl of 40× inhibitor (in 100% DMSO) or 100% DMSO were added to each well of a 384-well black plate (Greiner Bio-One, Monroe, N.C.) containing 14.5 μl IX reaction buffer /PIP2 (10 mM MgCl2, 5 mM DTT, 1.38 μM PIP2) mix with or without enzyme and incubated for 10 min. After the initial incubation, 5 μl/well of 400 μM ATP was added and incubated for an additional 30 minutes. Reaction was terminated by adding 5 μl/well stop solution (Millipore, Billerica, Mass.). Five microliters of detection mix (Millipore, Billerica, Mass.) were then added to each well and was incubated for 6-18 h in the dark. HRTF ratio was measured on a microplate reader (BMG Labtech., Germany) at an excitation wavelength of 337 nm and emission wavelengths of 665 and 620 nm with an integration time of 400 μsec.
(§3) Data were analyzed using Graphpad Prism (Graphpad software; San Diego Calif.) for IC50 determination. Examples 1-59 were tested at 1 uM for Pi3kα & Pi3k β and at 0.3 uM for γ and δ. Examples 60-137 were tested at 1 uM for Pi3kα & Pi3k β and at 0.1 uM for γ and δ. Percent inhibition was calculated based on the values for the blank and enzyme controls. The results are as provided in Table 2 (wherein D=0 to 25%; C=>25 to 50%; B=>50 to 75%; A=>75 to 100%; +++++=≤50 nM; ++++=>50 to ≤100 nM; +++=>100 to ≤300 nM; ++=>300 to ≤500 nM; +=>500 nM)

PI3kδ = PI3kδ (Homo sapiens, UniProt O00329); test: Fluorescent (HTRF) determination of PI3 kinase enzyme activity, PI3Kδ; settings: for inhibition at 0.1 µM / % inhibition (PI3kδ) 100 nM: 100 nM (Examples 60-137); for % inhibition (PI3kδ) 100 nM: 0.1 µM; for inhibition at 0.3 µM: 300 nM (Examples 1-59)
From the text: as §1, §2, §3

PI3kα = PI3kα (Homo sapiens, UniProt P42336); test: Fluorescent (HTRF) determination of PI3 kinase enzyme activity, PI3Kα
From the text: as §1, §2, §3

PI3kβ = PI3kβ (Homo sapiens, UniProt P42338); test: Fluorescent (HTRF) determination of PI3 kinase enzyme activity, PI3Kβ
From the text: as §1, §2, §3

PI3kβ, sequence (P42338 whole entry): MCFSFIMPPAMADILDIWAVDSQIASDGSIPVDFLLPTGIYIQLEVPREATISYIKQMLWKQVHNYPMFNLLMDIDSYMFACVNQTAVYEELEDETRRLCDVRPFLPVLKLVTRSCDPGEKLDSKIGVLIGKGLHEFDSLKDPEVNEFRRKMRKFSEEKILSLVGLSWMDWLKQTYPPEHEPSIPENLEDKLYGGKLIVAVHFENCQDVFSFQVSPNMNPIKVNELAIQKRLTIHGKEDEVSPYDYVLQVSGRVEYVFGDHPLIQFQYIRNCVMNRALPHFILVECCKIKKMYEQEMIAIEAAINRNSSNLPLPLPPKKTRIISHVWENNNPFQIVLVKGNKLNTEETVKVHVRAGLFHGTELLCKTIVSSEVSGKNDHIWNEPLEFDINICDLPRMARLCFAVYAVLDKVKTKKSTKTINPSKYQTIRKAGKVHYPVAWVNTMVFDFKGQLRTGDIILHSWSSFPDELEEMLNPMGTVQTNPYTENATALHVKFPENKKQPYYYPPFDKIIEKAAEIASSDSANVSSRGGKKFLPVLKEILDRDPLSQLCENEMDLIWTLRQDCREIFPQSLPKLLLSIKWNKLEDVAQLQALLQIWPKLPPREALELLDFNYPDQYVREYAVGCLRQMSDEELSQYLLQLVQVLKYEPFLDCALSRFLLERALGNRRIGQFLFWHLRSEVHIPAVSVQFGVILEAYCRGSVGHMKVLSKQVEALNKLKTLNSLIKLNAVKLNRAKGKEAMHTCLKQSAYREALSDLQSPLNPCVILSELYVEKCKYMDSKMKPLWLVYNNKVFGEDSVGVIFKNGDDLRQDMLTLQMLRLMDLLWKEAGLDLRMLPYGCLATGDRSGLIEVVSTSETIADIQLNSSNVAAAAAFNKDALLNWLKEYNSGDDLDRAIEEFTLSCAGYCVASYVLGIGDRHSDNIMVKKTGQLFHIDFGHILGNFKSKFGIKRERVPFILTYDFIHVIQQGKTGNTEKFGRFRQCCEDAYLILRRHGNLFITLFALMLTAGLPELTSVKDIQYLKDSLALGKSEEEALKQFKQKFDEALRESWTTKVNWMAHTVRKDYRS
PI3kβ, sequence (P27986 whole entry partner): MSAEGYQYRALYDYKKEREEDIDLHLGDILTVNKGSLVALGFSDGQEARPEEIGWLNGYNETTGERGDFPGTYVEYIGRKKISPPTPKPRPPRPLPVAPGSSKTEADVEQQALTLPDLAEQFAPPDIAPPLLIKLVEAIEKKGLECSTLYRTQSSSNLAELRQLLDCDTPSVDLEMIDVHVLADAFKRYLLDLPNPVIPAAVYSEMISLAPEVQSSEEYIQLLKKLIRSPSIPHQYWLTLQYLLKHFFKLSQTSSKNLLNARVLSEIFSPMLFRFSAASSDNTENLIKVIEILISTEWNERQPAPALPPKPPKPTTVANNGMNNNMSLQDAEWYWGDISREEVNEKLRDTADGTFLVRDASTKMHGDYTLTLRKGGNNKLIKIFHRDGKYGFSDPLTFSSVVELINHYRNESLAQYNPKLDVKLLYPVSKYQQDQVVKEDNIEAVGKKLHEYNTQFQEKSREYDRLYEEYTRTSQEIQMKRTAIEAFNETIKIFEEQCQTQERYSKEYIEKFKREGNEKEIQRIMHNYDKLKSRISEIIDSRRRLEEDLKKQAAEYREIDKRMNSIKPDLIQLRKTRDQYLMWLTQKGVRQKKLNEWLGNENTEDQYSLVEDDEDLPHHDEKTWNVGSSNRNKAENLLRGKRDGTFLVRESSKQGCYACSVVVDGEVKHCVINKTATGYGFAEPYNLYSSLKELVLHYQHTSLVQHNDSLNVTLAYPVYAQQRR
PI3kα, sequence (P42336 whole entry): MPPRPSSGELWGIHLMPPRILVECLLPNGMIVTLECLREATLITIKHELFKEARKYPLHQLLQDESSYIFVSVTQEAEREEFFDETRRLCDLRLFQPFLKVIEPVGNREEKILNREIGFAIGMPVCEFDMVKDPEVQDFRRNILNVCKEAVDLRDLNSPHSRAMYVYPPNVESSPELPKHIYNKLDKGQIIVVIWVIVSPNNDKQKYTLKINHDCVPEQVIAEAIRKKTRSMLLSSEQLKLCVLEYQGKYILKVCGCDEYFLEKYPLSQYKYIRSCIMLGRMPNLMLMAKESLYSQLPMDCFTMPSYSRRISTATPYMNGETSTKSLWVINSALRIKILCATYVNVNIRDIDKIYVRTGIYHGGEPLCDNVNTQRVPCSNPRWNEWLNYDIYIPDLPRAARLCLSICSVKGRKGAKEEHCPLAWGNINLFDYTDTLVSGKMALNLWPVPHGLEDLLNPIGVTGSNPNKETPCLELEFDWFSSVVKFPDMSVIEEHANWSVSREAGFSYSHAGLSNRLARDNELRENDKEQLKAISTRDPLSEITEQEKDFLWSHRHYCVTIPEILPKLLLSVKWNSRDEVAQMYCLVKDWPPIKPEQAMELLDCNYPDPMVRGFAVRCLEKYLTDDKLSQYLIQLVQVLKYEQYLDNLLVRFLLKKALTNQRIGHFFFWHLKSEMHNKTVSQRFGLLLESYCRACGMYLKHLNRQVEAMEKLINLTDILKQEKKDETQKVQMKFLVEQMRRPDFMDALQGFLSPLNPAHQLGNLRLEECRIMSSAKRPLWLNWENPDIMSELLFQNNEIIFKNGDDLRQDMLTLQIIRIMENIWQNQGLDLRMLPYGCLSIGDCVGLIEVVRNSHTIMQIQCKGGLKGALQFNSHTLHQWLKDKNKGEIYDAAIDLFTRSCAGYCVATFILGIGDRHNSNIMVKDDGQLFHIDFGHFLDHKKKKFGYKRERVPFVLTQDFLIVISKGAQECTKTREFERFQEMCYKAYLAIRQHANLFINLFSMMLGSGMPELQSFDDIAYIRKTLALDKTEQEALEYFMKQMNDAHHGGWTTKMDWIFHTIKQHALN
PI3kα, sequence (P27986 whole entry partner): as the sequence (P27986 whole entry partner) above
PI3kγ, sequence (P48736 whole entry): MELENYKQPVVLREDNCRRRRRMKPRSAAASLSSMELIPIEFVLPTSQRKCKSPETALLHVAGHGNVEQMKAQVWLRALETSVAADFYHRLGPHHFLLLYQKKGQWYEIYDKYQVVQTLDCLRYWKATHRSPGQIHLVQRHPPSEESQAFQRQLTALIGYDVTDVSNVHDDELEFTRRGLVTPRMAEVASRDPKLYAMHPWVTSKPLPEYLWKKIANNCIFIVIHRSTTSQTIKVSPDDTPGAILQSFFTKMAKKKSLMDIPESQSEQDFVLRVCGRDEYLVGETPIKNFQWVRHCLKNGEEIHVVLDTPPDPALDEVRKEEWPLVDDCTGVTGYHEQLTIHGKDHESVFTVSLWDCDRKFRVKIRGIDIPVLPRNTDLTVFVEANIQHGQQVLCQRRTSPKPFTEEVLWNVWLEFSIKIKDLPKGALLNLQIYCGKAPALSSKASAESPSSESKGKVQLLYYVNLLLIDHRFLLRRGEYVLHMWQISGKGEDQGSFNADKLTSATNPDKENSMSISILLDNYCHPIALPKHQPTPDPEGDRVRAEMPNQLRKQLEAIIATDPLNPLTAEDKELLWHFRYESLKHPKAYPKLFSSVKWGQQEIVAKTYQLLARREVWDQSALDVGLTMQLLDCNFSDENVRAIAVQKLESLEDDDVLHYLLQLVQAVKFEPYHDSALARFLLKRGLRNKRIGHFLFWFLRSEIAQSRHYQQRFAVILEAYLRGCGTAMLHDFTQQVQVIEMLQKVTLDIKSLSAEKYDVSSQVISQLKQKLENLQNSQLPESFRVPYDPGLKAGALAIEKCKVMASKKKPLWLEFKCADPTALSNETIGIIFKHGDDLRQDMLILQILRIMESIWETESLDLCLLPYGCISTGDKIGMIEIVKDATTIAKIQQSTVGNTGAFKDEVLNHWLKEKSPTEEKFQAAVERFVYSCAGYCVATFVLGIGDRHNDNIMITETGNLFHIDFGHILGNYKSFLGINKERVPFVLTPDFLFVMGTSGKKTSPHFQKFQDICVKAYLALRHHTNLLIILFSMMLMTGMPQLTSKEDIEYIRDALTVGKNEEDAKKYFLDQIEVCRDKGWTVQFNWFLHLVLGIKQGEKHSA
PI3kδ, sequence (O00329 whole entry): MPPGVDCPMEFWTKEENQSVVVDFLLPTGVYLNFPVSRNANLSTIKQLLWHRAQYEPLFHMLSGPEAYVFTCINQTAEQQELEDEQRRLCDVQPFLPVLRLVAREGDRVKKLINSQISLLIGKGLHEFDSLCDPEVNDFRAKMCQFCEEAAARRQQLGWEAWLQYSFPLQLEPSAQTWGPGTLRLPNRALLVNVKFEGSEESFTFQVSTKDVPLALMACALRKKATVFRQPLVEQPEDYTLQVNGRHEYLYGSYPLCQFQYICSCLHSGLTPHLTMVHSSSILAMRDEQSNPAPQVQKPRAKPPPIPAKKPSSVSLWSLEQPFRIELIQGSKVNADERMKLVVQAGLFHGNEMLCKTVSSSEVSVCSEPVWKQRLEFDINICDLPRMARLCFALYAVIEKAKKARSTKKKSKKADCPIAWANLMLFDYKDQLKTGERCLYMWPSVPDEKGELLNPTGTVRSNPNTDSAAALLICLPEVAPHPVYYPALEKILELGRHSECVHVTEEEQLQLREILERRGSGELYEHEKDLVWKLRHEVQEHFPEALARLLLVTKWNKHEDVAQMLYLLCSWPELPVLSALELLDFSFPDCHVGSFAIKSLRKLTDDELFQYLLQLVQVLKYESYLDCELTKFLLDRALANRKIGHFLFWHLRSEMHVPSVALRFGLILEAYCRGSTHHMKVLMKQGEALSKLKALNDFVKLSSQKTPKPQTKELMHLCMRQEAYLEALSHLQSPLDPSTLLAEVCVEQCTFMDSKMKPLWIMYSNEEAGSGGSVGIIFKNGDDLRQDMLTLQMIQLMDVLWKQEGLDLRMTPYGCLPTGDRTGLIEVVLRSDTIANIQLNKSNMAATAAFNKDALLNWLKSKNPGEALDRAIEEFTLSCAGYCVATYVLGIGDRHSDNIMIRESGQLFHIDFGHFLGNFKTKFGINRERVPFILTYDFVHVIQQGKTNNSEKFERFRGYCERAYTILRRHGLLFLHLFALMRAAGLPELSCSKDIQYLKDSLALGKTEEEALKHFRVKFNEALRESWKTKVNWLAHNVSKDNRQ
PI3kδ, sequence (P27986 whole entry partner): as the sequence (P27986 whole entry partner) above

CC(c1oc2cccc(F)c2c(=O)c1-c1ccc(F)cc1)n1nc(-c2ccc(OC(F)F)c(F)c2)c2c(N)ncnc21 (racemic) [Example 96, (S)/(R)-2-(1-(4-amino-3-(4-(difluoromethoxy)-3-fluorophenyl)-1H-pyrazolo[3,4-d]pyrimidin-1-yl)ethyl)-5-fluoro-3-(4-fluorophenyl)-4H-chromen-4-one] gave an inhibition at 0.1 µM (PI3kγ) of 0 to 25% and an inhibition at 0.1 µM (PI3kδ) of 0 to 25%.
Work on CC(C)Oc1ccc(-c2nn(C(C)c3oc4cccc(F)c4c(=O)c3-c3ccc(F)cc3)c3ncnc(N)c23)cc1F (single isomer, unassigned) [Example 95] yielded an inhibition at 0.1 µM (PI3kγ) of 0 to 25% and an inhibition at 0.1 µM (PI3kδ) of 25 to 50%.
CC(c1oc2cccc(F)c2c(=O)c1-c1ccccc1)n1nc(-c2ccc(OC(F)F)c(F)c2)c2c(N)ncnc21 (single isomer, unassigned) [Example 103] gave an inhibition at 0.1 µM (PI3kγ) of 25 to 50% and an inhibition at 0.1 µM (PI3kδ) of 0 to 25%.
CNc1ncnc2c1c(-c1ccc(OC(C)C)c(F)c1)nn2C(C)c1oc2cccc(F)c2c(=O)c1-c1cccc(F)c1 (single isomer, unassigned; (+)) [Example 104, (+)-5-fluoro-2-(1-(3-(3-fluoro-4-isopropoxyphenyl)-4-(methylamino)-1H-pyrazolo[3,4-d]pyrimidin-1-yl)ethyl)-3-(3-fluorophenyl)-4H-chromen-4-one] was tested, and the inhibition at 0.1 µM (PI3kγ) was 25 to 50% and the “% inhibition (PI3kδ) 100 nM” value (PI3kδ) was “D (D=0 to 25%)”.
With Cc1cc(-c2nn(C(C)c3oc4cccc(F)c4c(=O)c3-c3cccc(F)c3)c3ncnc(N)c23)ccc1OC(C)C (single isomer, unassigned; (+)) [Example 114, (+) 2-(1-(4-amino-3-(4-isopropoxy-3-methylphenyl)-1H-pyrazolo[3,4-d]pyrimidin-1-yl)ethyl)-5-fluoro-3-(3-fluorophenyl)-4H-chromen-4-one] the “% inhibition (PI3kγ) 100 nM” value (PI3kγ; 0.1 µM) was “B (B=>50 to 75%)”, the “% inhibition (PI3kδ) 100 nM” value (PI3kδ) was “B (B=>50 to 75%)” and the “% inhibition (PI3kα) 1 uM” value (PI3kα; 1 uM) was “D (D=0 to 25%)”.
With CNc1ncnc2c1c(-c1ccc(OC(C)C)c(F)c1)nn2C(C)c1oc2cccc(F)c2c(=O)c1-c1cccc(F)c1 (single isomer, unassigned; (-)) [Example 105, (−)-5-fluoro-2-(1-(3-(3-fluoro-4-isopropoxyphenyl)-4-(methylamino)-1H-pyrazolo[3,4-d]pyrimidin-1-yl)ethyl)-3-(3-fluorophenyl)-4H-chromen-4-one] the “% inhibition (PI3kγ) 100 nM” value (PI3kγ) was “C (C=>25 to 50%)” and the “% inhibition (PI3kδ) 100 nM” value (PI3kδ) was “D (D=0 to 25%)”.
In the case of COc1cccc2oc(Cn3cnc4c(N)ncnc43)c(-c3cccc(F)c3)c(=O)c12 [Example 1], the inhibition at 1 µM (PI3kβ) is reported as 25 to 50%, the inhibition at 0.3 µM (PI3kδ) is reported as 50 to 75% and the inhibition at 1 µM (PI3kα; 1 uM) is reported as 25 to 50%.
COc1cccc2oc(Cn3nc(-c4ccc(OC(C)C)c(F)c4)c4c(N)ncnc43)c(-c3cccc(F)c3)c(=O)c12 [Example 2, 2-((4-Amino-3-(3-fluoro-4-isopropoxyphenyl)-1H-pyrazolo[3,4-d]pyrimidin-1-yl)methyl)-3-(3-fluorophenyl)-5-methoxy-4H-chromen-4-one] gave an inhibition at 1 µM (PI3kβ) of 0 to 25%, an inhibition at 0.3 µM (PI3kδ) of 50 to 75% and an inhibition at 1 µM (PI3kα; 1 uM) of 0 to 25%.
Nc1ncnc2c1c(-c1cc(O)cc(F)c1)nn2Cc1oc2cccc(F)c2c(=O)c1-c1cccc(F)c1 [Example 5, 2-((4-amino-3-(3-fluoro-5-hydroxyphenyl)-1H-pyrazolo[3,4-d]pyrimidin-1-yl)methyl)-5-fluoro-3-(3-fluorophenyl)-4H-chromen-4-one] gave an IC50 (PI3kβ) of 300 to 500 nM, an inhibition at 1 µM (PI3kβ) of 0 to 25% and an inhibition at 0.3 µM (PI3kδ) of 50 to 75%. The inhibition at 1 µM (PI3kα; 1 uM) was 25 to 50% and the IC50 (PI3kα; numeric values) was > 10000 nM.
For CC(Nc1ncnc2[nH]cnc12)c1oc2cccc(F)c2c(=O)c1-c1cccc(F)c1 (stereo not drawn) [Example 15, 2-(1-(9H-purin-6-ylamino)ethyl)-5-fluoro-3-(3-fluorophenyl)-4H-chromen-4-one], the inhibition at 0.3 µM (PI3kγ) was 0 to 25% and the inhibition at 0.3 µM (PI3kδ) was 0 to 25%.
Molecule CC(c1oc2cccc(F)c2c(=O)c1-c1cccc(F)c1)n1nc(-c2ccc(OC3CCNCC3)c(F)c2)c2c(N)ncnc21 (stereo not drawn) [Example 21, 2-(1-(4-amino-3-(3-fluoro-4-(piperidin-4-yloxy)phenyl)-1H-pyrazolo[3,4-d]pyrimidin-1-yl)ethyl)-5-fluoro-3-(3-fluorophenyl)-4H-chromen-4-one] has an inhibition at 0.3 µM (PI3kγ) of 0 to 25% and an inhibition at 0.3 µM (PI3kδ) of 25 to 50%.
In the case of CC(c1oc2cccc(F)c2c(=O)c1-c1cccc(F)c1)n1nc(-c2ccc(N(C)C)c(F)c2)c2c(N)ncnc21 (stereo not drawn) [Example 24, 2-(1-(4-amino-3-(4-(dimethylamino)-3-fluorophenyl)-1H-pyrazolo[3,4-d]pyrimidin-1-yl)ethyl)-5-fluoro-3-(3-fluorophenyl)-4H-chromen-4-one], the inhibition at 0.3 µM (PI3kγ) is reported as 25 to 50%, the inhibition at 1 µM (PI3kβ) is reported as 50 to 75% and the inhibition at 1 µM (PI3kα; 1 uM) is reported as 0 to 25%.
In the case of CC(C)c1nn(C(C)c2oc3cccc(F)c3c(=O)c2-c2cccc(F)c2)c2ncnc(N)c12 (stereo not drawn) [Example 35, 2-(1-(4-amino-3-isopropyl-1H-pyrazolo[3,4-d]pyrimidin-1-yl)ethyl)-5-fluoro-3-(3-fluorophenyl)-4H-chromen-4-one], the inhibition at 0.3 µM (PI3kγ) is reported as 25 to 50% and the inhibition at 0.3 µM (PI3kδ) is reported as 0 to 25%.
With CC(c1oc2cccc(F)c2c(=O)c1-c1ccccc1)n1nc(-c2ccc(N3CCOCC3)c(F)c2)c2c(N)ncnc21 (stereo not drawn) [Example 92, 2-(1-(4-amino-3-(3-fluoro-4-morpholinophenyl)-1H-pyrazolo[3,4-d]pyrimidin-1-yl)ethyl)-5-fluoro-3-phenyl-4H-chromen-4-one] the inhibition at 0.1 µM (PI3kγ) was 0 to 25% and the inhibition at 0.1 µM (PI3kδ) was 0 to 25%.
CC(c1oc2cccc(F)c2c(=O)c1-c1ccc(F)cc1)n1nc(-c2ccc(N3CCOCC3)c(F)c2)c2c(N)ncnc21 (stereo not drawn) [Example 93, 2-(1-(4-amino-3-(3-fluoro-4-morpholinophenyl)-1H-pyrazolo[3,4-d]pyrimidin-1-yl)ethyl)-5-fluoro-3-(4-fluorophenyl)-4H-chromen-4-one] showed an inhibition at 0.1 µM (PI3kγ) of 0 to 25% and an inhibition at 0.1 µM (PI3kδ) of 25 to 50%.
CNc1ncnc2c1c(-c1ccc(N3CCOCC3)c(F)c1)nn2C(C)c1oc2cccc(F)c2c(=O)c1-c1cccc(F)c1 (stereo not drawn) [Example 99, 5-fluoro-2-(1-(3-(3-fluoro-4-morpholinophenyl)-4-(methylamino)-1H-pyrazolo[3,4-d]pyrimidin-1-yl)ethyl)-3-(3-fluorophenyl)-4H-chromen-4-one] showed an inhibition at 0.1 µM (PI3kγ) of 25 to 50% and an inhibition at 0.1 µM (PI3kδ) of 25 to 50%.
CC(c1oc2cccc(F)c2c(=O)c1-c1cccc(F)c1)n1cnc2c(N)nc(F)nc21 (stereo not drawn) [Example 106, 2-(1-(6-amino-2-fluoro-9H-purin-9-yl)ethyl)-5-fluoro-3-(3-fluorophenyl)-4H-chromen-4-one] showed an inhibition at 0.1 µM (PI3kγ) of 25 to 50% and an inhibition at 0.1 µM (PI3kδ) of 0 to 25%.
With CC(c1oc2cccc(F)c2c(=O)c1-c1ccc(F)cc1)n1cnc2c(N3CCN(C)CC3)ncnc21 (stereo not drawn) [Example 109, 5-fluoro-3-(4-fluorophenyl)-2-(1-(6-(4-methylpiperazin-1-yl)-9H-purin-9-yl)ethyl)-4H-chromen-4-one] the inhibition at 0.1 µM (PI3kγ) was 0 to 25% and the inhibition at 0.1 µM (PI3kδ) was 25 to 50%.
Molecule CNc1ncnc2c1ncn2C(C)c1oc2cccc(F)c2c(=O)c1-c1cccc(F)c1 (stereo not drawn) [Example 111, 5-fluoro-3-(3-fluorophenyl)-2-(1-(6-(methylamino)-9H-purin-9-yl)ethyl)-4H-chromen-4-one] has an inhibition at 0.1 µM (PI3kγ) of 25 to 50%, an inhibition at 1 µM (PI3kβ) of 0 to 25% and an inhibition at 0.1 µM (PI3kδ) of 25 to 50%.
In the case of CC(C)Oc1ccc(-c2nn(C(C)c3oc4cccc(F)c4c(=O)c3-c3cccc(F)c3)c3ncnc(N)c23)cc1Cl (stereo not drawn) [Example 117, 2-(1-(4-amino-3-(3-chloro-4-isopropoxyphenyl)-1H-pyrazolo[3,4-d]pyrimidin-1-yl)ethyl)-5-fluoro-3-(3-fluorophenyl)-4H-chromen-4-one], the inhibition at 0.1 µM (PI3kγ) is reported as 25 to 50%, the inhibition at 0.1 µM (PI3kδ) is reported as 25 to 50% and the inhibition at 1 µM (PI3kα; 1 uM) is reported as 50 to 75%.
For CC(c1oc2cccc(F)c2c(=O)c1-c1cccc(F)c1)n1cnc2c(N3CCOCC3)ncnc21 (stereo not drawn) [Example 119, 5-fluoro-3-(3-fluorophenyl)-2-(1-(6-morpholino-9H-purin-9-yl)ethyl)-4H-chromen-4-one], the inhibition at 0.1 µM (PI3kγ) was 25 to 50% and the inhibition at 0.1 µM (PI3kδ) was 0 to 25%.
CCC(c1oc2cccc(F)c2c(=O)c1-c1cccc(F)c1)n1nc(-c2ccc(OC(C)C)c(F)c2)c2c(N)ncnc21 (stereo not drawn) [Example 133, 2-(1-(4-amino-3-(3-fluoro-4-isopropoxyphenyl)-1H-pyrazolo[3,4-d]pyrimidin-1-yl)propyl)-5-fluoro-3-(3-fluorophenyl)-4H-chromen-4-one] was tested, and the inhibition at 0.1 µM (PI3kγ) was 50 to 75%, the inhibition at 1 µM (PI3kβ) was 50 to 75% and the inhibition at 0.1 µM (PI3kδ) was 25 to 50%.
